These results are taken from ChEMBL document CHEMBL1151704, “Nicotinic acid receptor agonists” (J Med Chem, 2008).

The species entered for one data set is Rattus norvegicus. In words: Reduction of plasma free fatty acid in Sprague-Dawley rat. Type of data set: functional.
A short description of data set [1]: Therapeutic index, ratio of ED50 for plasma free fatty acid in Sprague-Dawley rat to ED50 for vasodilation in mouse. The following applies: read-out: Ratio ED50.
The target of data set [2] is Hydroxycarboxylic acid receptor 2 (Homo sapiens, UniProt Q8TDS4). In words: Activity at GPR109a assessed as inhibition of forskolin-stimulated cAMP production. It counts as functional.
Data set [3] has as its target Hydroxycarboxylic acid receptor 3 (Homo sapiens, UniProt P49019). In words: Activity at GPR109b assessed as inhibition of forskolin-stimulated cAMP production. It counts as functional. For orientation: cAMP levels reflect the balance of adenylyl cyclase and phosphodiesterase activity.

Chain of Hydroxycarboxylic acid receptor 2 (Q8TDS4 whole entry): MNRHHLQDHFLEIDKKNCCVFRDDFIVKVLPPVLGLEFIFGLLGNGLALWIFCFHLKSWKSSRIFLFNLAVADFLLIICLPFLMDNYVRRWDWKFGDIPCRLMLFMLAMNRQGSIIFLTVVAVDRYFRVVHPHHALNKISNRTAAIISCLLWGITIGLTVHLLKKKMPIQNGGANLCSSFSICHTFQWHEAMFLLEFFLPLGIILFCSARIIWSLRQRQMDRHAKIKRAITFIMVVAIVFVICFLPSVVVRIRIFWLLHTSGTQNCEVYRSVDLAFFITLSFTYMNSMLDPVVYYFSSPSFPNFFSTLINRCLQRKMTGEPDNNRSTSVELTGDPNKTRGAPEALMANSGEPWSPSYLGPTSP
Chain of Hydroxycarboxylic acid receptor 3 (P49019 whole entry): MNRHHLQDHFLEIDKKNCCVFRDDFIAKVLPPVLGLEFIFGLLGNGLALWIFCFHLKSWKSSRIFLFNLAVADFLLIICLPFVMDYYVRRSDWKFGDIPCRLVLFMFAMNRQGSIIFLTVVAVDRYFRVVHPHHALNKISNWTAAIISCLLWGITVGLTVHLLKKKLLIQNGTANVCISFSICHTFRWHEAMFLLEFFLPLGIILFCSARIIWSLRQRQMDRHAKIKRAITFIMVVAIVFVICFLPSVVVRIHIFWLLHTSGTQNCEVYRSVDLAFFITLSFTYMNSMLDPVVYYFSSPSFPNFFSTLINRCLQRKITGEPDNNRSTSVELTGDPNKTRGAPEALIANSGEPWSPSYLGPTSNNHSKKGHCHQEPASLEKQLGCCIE

For the compound `O=C(CCc1nc(-c2ccc(O)cn2)no1)Nc1ccccc1C(=O)O`, the 50% effect level in the data set filed under Rattus norvegicus (ED50) was put at a dose of 9 mg/kg. The selectivity ratio in data set [1] was over 70.

Regarding `CC(C)n1nnc2cc(C(=O)O)ccc21`, the half-maximal effective concentration (EC50) (as a rule, the concentration giving half of the maximal effect) in data set [2] is 400 nM. As for `O=C(CCc1nc(-c2ccc(O)cc2)no1)Nc1ccccc1C(=O)O`, it took a dose of 9 mg/kg to reach the 50% effect level in the data set listed under Rattus norvegicus (ED50). Also, the selectivity ratio in data set [1] is over 70. For the compound `CC1(c2ccccc2)OC(C(=O)O)=CC1=O` (configuration not stated) [ACIFRAN], the IC50 (usually the concentration at which inhibition is half-maximal) in data set [2] stood at 500 nM; in data set [3], 3000 nM.
